Measured values as given in patent US20260207636A1, “PRODRUGS OF DIMETHOXYPHENYL[…] SEROTONIN RECEPTORS” (priority 2022, published 2026).

Assays:
[1] = Compound mouse plasma stability; assay type: in vitro ADME
Experimental: (§1) Compounds 1-6 were assessed for their stability in various environments, including phosphate buffered saline (PBS), simulated gastric fluid (SGF) with pepsin, SGF without pepsin, and mouse plasma, using standard stability assay protocols.

[2] = Compound chemical stability in PBS (pH 6.5); assay type: physicochemical
Experimental: as §1

[3] = Compound chemical stability in SGF with pepsin; assay type: physicochemical
Experimental: as §1

[4] = Compound chemical stability in SGF without pepsin; assay type: physicochemical
Experimental: as §1

| Structure (SMILES) | % Remaining ([1]; 0 minutes) | % Remaining ([1]; 30 minutes) | % Remaining ([1]; 60 minutes) | % Remaining ([1]; 120 minutes) | % Remaining ([1]; 240 minutes) | % Remaining ([2]; 0 minutes) | % Remaining ([2]; 30 minutes) | % Remaining ([2]; 60 minutes) | % Remaining ([2]; 120 minutes) | % Remaining ([2]; 240 minutes) | % Remaining ([3]; 0 minutes) | % Remaining ([3]; 30 minutes) | % Remaining ([3]; 60 minutes) | % Remaining ([3]; 120 minutes) | % Remaining ([3]; 240 minutes) | % Remaining ([4]; 0 minutes) | % Remaining ([4]; 30 minutes) | % Remaining ([4]; 60 minutes) | % Remaining ([4]; 120 minutes) | % Remaining ([4]; 240 minutes) |
| --- | --- | --- | --- | --- | --- | --- | --- | --- | --- | --- | --- | --- | --- | --- | --- | --- | --- | --- | --- | --- |
| COc1ccc(OC)c(CCN(Cc2cc(C)cc(Cl)c2)C(=O)OCc2oc(=O)oc2C)c1 [Compound 3, (5-Methyl-2-oxo-1,3-dioxol-4-yl)methyl (3-chloro-5-methylbenzyl)(2,5-dimethoxyphenethyl)carbamate] | 100% | 00% | 00% | 00% | 00% | 100% | 97% | 94% | 89% | 67% | 100% | 105% | 105% | 93% | 106% | 100% | 105% | 109% | 106% | 107% |
| COc1ccc(OC)c(CCN(Cc2cc(C)cc(Cl)c2)C(=O)OC(C)OC(=O)C(C)(C)C)c1 (stereo not shown) [Compound 4, 1-(((3-Chloro-5-methylbenzyl)(2,5-dimethoxyphenethyl)carbamoyl)oxy)ethyl pivalate] | 100% | 2% | 1% | 00% | 00% | 100% | 102% | 101% | 102% | 116% | 100% | 93% | 96% | 94% | 105% | 100% | 90% | 89% | 96% | 88% |
| COc1ccc(OC)c(CCN(Cc2cc(C)cc(Cl)c2)C(=O)CN)c1 [Compound 6, 2-Amino-N-(3-chloro-5-methylbenzyl)-N-(2,5-dimethoxyphenethyl)acetamide] | 100% | 85% | 82% | 89% | 86% | 100% | 91% | 94% | 93% | 93% | 100% | 95% | 97% | 96% | 94% | 100% | 98% | 99% | 95% | 96% |
| CCOC(=O)N(CCc1cc(OC)ccc1OC)Cc1cc(C)cc(Cl)c1 [Compound 5, Ethyl (3-chloro-5-methylbenzyl)(2,5-dimethoxyphenethyl)carbamate] | 100% | 88% | 86% | 91% | 87% | 100% | 96% | 99% | 101% | 94% | 100% | 97% | 92% | 90% | 80% | 100% | 100% | 88% | 94% | 101% |
| COc1ccc(OC)c(CCN(Cc2cc(C)cc(Cl)c2)Cc2oc(=O)oc2C)c1 [Compound 2, 4-(((3-Chloro-5-methylbenzyl)(2,5-dimethoxyphenethyl)amino)methyl)-5-methyl-1,3-dioxol-2-one] | 100% | 73% | 61% | 41% | 20% | 100% | 66% | 43% | 15% | 2% | 100% | 93% | 93% | 84% | 70% | 100% | 100% | 96% | 86% | 72% |
